Measurements from ChEMBL document CHEMBL1201862, “PubChem BioAssay data set” (2004).
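Values below derive from 48-hour exposures of cells grown in 96-well plates, with endpoints linearly interpolated between the two concentrations bracketing the appropriate inhibition level. At the GI50, growth is halved.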 The source made the active and inactive calls. No stated cut-off is given here; in the data, active = GI50 up to about 1.1 µM and inactive = higher.

Tests used:
Assay in all cases: NCI anticancer screen, dose series, 48 h
NCI-H226 = tested on: NCI-H226
UACC-257 = tested on: UACC-257
OVCAR-5 = tested on: OVCAR-5
KM12 = tested on: KM12
SN12C = tested on: SN12C
SNB-75 = tested on: SNB-75
TK-10 = tested on: TK-10
CCRF-CEM = tested on: CCRF-CEM
SK-MEL-28 = tested on: SK-MEL-28
HOP-62 = tested on: HOP-62
U-251 = tested on: U-251
HCC 2998 = tested on: HCC 2998
RXF 393 = tested on: RXF 393
EKVX = tested on: EKVX
NCI-H522 = tested on: NCI-H522
LOX IMVI = tested on: LOX IMVI
SK-MEL-5 = tested on: SK-MEL-5
HOP-92 = tested on: HOP-92
SW-620 = tested on: SW-620
CAKI-1 = tested on: CAKI-1

Measured: GI50

COC(=O)C1=C(O)C(C(=O)OC)[C@@]2(O)[C@@H](C(=O)OC)CC[C@@H]1[C@@H]2C(=O)OC (some centres undefined)
inactive: NCI-H226 20.1 µM | UACC-257 27.4 µM | OVCAR-5 28.2 µM | KM12 21.6 µM | SN12C 25.4 µM | SNB-75 17.9 µM | TK-10 23 µM | CCRF-CEM 25.2 µM | SK-MEL-28 27.9 µM | HOP-62 23.8 µM | U-251 22.3 µM | HCC 2998 16.4 µM | RXF 393 12.2 µM | EKVX 23 µM | NCI-H522 10.6 µM | LOX IMVI 21.3 µM

Cc1[nH]c(=O)[nH]c(=O)c1/C=C/C(=O)NC(CO)C[S+]([O-])Cc1ccccc1 (centres undefined)
inactive: NCI-H226 > 300 µM | UACC-257 > 300 µM | SK-MEL-5 > 300 µM | HOP-92 > 190 µM | OVCAR-5 > 300 µM | KM12 299 µM | SN12C > 300 µM | SNB-75 296 µM | SW-620 > 300 µM | CCRF-CEM > 300 µM | SK-MEL-28 > 300 µM | HOP-62 > 300 µM | U-251 > 300 µM | HCC 2998 > 300 µM | RXF 393 > 300 µM | EKVX > 300 µM | NCI-H522 > 300 µM | LOX IMVI > 300 µM | CAKI-1 > 300 µM

O=C1C(Cl)N(c2ccc(Cl)cc2Cl)C1c1c[nH]c2ccccc12 (centres undefined)
inactive: UACC-257 > 100 µM | SK-MEL-5 > 100 µM | HOP-92 44.5 µM | KM12 > 100 µM | SN12C > 100 µM | SNB-75 6.49 µM | TK-10 > 100 µM | SW-620 > 100 µM | CCRF-CEM > 100 µM | SK-MEL-28 > 100 µM | HOP-62 > 100 µM | U-251 > 100 µM | RXF 393 74 µM | EKVX 54 µM | NCI-H522 > 100 µM

O=c1c(Cc2ccc(Cc3c(O)oc4ccccc4c3=O)cc2)c(O)oc2ccccc12
inactive: NCI-H226 > 100 µM | UACC-257 > 100 µM | SK-MEL-5 > 100 µM | HOP-92 > 100 µM | OVCAR-5 > 100 µM | SN12C > 100 µM | SNB-75 > 100 µM | TK-10 > 100 µM | SW-620 > 100 µM | CCRF-CEM > 100 µM | SK-MEL-28 > 100 µM | HOP-62 > 100 µM | U-251 > 100 µM | HCC 2998 > 100 µM | RXF 393 > 100 µM | EKVX > 100 µM | LOX IMVI > 100 µM | CAKI-1 > 100 µM

CCOC(=O)C(NC(C)=O)(Nc1ccc(F)cc1)C(F)(F)F (centres undefined)
inactive: UACC-257 > 100 µM | SK-MEL-5 3.03 µM | HOP-92 > 100 µM | OVCAR-5 47 µM | KM12 83.2 µM | SN12C > 100 µM | SNB-75 > 100 µM | TK-10 > 100 µM | SW-620 28.8 µM | CCRF-CEM > 100 µM | SK-MEL-28 > 100 µM | U-251 16.5 µM | HCC 2998 5.18 µM | RXF 393 40.3 µM | EKVX > 100 µM | NCI-H522 > 100 µM | LOX IMVI > 100 µM | CAKI-1 > 100 µM

COc1cc2c(cc1OC)C1Cc3sccc3CN1CC2 (centres undefined)
inactive: NCI-H226 > 100 µM | UACC-257 > 100 µM | SK-MEL-5 > 100 µM | HOP-92 76.2 µM | OVCAR-5 > 100 µM | SN12C > 100 µM | SNB-75 > 100 µM | TK-10 > 100 µM | SW-620 > 100 µM | CCRF-CEM > 100 µM | HOP-62 > 100 µM | U-251 > 100 µM | HCC 2998 > 100 µM | RXF 393 > 100 µM | EKVX > 100 µM | NCI-H522 > 100 µM | LOX IMVI > 100 µM | CAKI-1 > 100 µM

C=CCn1c2ccccc2c2c(C)c3cnccc3c(C)c21
inactive: NCI-H226 5.16 µM | UACC-257 7.23 µM | SK-MEL-5 6.82 µM | HOP-92 1.92 µM | OVCAR-5 6.38 µM | KM12 4.38 µM | SN12C 9.1 µM | SNB-75 13.2 µM | SW-620 6.61 µM | CCRF-CEM 4.12 µM | SK-MEL-28 14.8 µM | HOP-62 9.98 µM | U-251 11.2 µM | HCC 2998 20.4 µM | RXF 393 4.27 µM | EKVX 12.1 µM | NCI-H522 5.52 µM | LOX IMVI 6.82 µM | CAKI-1 2.06 µM

O=C(O)CN(CC(=O)O)C1CCCCC1N(CC(=O)O)CC(=O)NCCN=C=S (centres undefined)
inactive: NCI-H226 > 100 µM | UACC-257 > 100 µM | SK-MEL-5 > 100 µM | HOP-92 > 100 µM | OVCAR-5 > 100 µM | KM12 > 100 µM | SN12C > 100 µM | TK-10 > 100 µM | SW-620 > 100 µM | CCRF-CEM > 100 µM | SK-MEL-28 > 100 µM | HOP-62 > 100 µM | U-251 > 100 µM | HCC 2998 > 100 µM | RXF 393 > 100 µM | EKVX > 100 µM | NCI-H522 > 100 µM | LOX IMVI > 100 µM | CAKI-1 > 100 µM

CC(C)(C)C1(c2ccc(C3(c4ccccc4)Oc4ccccc4S3)[nH]2)Oc2ccccc2S1 (centres undefined)
inactive: NCI-H226 55 µM | UACC-257 92.9 µM | SK-MEL-5 > 100 µM | HOP-92 26.8 µM | OVCAR-5 > 100 µM | SN12C > 100 µM | TK-10 > 100 µM | SW-620 > 100 µM | CCRF-CEM > 100 µM | HOP-62 > 100 µM | U-251 > 100 µM | HCC 2998 > 100 µM | RXF 393 > 100 µM | EKVX > 100 µM | NCI-H522 > 100 µM | LOX IMVI > 100 µM | CAKI-1 > 100 µM
